From ChEMBL document CHEMBL2385023, “Negative allosteric modulators of metabotropic glutamate receptor subtype” (ACS Med Chem Lett, 2013)

Experiments:
[1] = tested on: Mus musculus; test: Anxiolytic activity in ip dosed Harlan CD1 mouse assessed as inhibition of marble burying activity administered 15 to 30 mins prior to test; format: functional
[2] = Oral bioavailability in rat; format: ADME, organism-based; details: in vivo
[3] = Ratio of drug level in brain to plasma in mouse at 10 mg/kg, po; format: ADME, organism-based; set-up: dose 10 mg/kg, route oral; details: read-out: BPR
[4] = Oral bioavailability in cynomolgus monkey; format: ADME, organism-based, Macaca fascicularis; details: in vivo
[5] = Plasma protein binding in human; format: ADME, cell-free; details: read-out: PPB (converted)

Cc1cc(Oc2cnc(C)nc2)cc(C(=O)Nc2ccc(F)cn2)n1
ED [1]: 10 mg/kg

CCc1cccc(NC(=O)c2cc(Oc3cncnc3)cc(C)n2)n1
ED [1]: 10 mg/kg
bioavailability [2]: 39%

Cc1cc(Oc2cncc(F)c2)cc(C(=O)Nc2ccc(F)cn2)n1
ED [1]: 30 mg/kg
Kp [3]: 4.7
bioavailability [2]: 67%
bioavailability [4]: 25%

Cc1cc(Oc2cncnc2)cc(C(=O)Nc2ccc(F)cn2)n1
fraction unbound [5]: 0.086
ED [1]: 10 mg/kg
Kp [3]: 5.9
bioavailability [2]: 30%
bioavailability [4]: 42%
